# Assay results taken from article PMC7187334 (Clinical Pharmacology in Drug Development, 2019).
# Experiments:
# [1] = system: leukotriene B4 production in human leukocytes; conditions: in vitro; cited from earlier work
# CYP2D6 = conditions: in vitro; read-out: IC50, CYP2D6 inhibition; cited from earlier work
# [2] = molecular target: T1, breast cancer resistance protein (BCRP) (Homo sapiens, UniProt Q9UNQ0); experiment: BCRP transporter inhibition in vitro; format: in vitro ADME; conditions: unpublished data
# T1 sequence (Q9UNQ0 1-655): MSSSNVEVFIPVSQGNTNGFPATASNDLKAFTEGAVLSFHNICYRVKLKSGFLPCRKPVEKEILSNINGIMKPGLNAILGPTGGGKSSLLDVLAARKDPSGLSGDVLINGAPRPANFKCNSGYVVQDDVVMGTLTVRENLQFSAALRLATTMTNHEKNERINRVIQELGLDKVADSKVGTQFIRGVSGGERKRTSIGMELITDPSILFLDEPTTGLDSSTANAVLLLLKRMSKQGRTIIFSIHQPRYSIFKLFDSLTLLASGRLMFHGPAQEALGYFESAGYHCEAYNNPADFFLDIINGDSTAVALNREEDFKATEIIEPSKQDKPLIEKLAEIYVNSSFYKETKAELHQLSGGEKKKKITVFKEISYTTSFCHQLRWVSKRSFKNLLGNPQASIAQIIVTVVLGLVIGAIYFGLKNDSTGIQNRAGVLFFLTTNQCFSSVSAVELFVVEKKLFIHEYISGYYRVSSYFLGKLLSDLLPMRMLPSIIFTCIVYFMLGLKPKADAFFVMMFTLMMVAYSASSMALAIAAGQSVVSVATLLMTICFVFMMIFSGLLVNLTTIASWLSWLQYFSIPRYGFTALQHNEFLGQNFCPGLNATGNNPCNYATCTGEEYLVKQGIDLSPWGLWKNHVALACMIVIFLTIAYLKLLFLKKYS
# P‐glycoprotein = P‐glycoprotein (Homo sapiens, UniProt P08183); experiment: P-glycoprotein inhibition in vitro; format: in vitro ADME
# P‐glycoprotein, sequence (P08183 whole entry): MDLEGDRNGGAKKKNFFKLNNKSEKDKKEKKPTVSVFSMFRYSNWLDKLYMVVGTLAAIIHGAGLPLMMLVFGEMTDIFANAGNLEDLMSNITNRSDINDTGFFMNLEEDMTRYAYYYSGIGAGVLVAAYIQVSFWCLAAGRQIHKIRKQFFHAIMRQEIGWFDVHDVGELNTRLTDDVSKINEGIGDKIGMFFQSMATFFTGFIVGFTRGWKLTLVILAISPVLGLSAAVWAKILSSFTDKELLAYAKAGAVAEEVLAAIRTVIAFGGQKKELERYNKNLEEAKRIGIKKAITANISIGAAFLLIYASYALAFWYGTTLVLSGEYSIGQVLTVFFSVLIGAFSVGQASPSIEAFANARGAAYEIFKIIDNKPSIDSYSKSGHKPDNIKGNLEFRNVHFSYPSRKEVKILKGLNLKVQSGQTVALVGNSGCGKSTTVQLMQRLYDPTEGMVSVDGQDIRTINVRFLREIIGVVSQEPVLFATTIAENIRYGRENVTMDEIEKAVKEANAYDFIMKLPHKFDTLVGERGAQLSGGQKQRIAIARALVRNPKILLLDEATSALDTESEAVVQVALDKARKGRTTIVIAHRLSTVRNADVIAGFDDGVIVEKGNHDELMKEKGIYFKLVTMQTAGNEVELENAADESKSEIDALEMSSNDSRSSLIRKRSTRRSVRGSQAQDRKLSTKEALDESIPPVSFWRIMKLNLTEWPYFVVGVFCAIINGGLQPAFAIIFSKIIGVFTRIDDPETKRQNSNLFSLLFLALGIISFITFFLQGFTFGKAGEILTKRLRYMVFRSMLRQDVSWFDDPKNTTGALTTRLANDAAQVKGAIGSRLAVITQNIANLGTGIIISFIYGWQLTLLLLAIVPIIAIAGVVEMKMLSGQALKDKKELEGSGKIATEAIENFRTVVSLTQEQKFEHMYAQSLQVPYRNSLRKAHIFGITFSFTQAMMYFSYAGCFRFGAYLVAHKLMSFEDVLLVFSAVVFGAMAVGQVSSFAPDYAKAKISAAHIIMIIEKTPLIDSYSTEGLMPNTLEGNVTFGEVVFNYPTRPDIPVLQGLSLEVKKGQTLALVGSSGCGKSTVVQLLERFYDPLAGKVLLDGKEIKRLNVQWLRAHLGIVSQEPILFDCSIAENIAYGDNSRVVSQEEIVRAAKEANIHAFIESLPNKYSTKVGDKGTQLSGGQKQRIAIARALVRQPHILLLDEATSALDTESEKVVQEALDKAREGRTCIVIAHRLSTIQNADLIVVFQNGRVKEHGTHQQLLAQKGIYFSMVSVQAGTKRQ
# [3] = molecular target: organic anion‐transporting polypeptide 1B1 (OATP1B1) (Homo sapiens, UniProt Q9Y6L6); experiment: OATP1B1 transporter inhibition in vitro; conditions: read-out: IC50, OATP1B1 inhibition, unpublished data
# organic anion‐transporting polypeptide 1B1 (OATP1B1), sequence (Q9Y6L6 whole entry): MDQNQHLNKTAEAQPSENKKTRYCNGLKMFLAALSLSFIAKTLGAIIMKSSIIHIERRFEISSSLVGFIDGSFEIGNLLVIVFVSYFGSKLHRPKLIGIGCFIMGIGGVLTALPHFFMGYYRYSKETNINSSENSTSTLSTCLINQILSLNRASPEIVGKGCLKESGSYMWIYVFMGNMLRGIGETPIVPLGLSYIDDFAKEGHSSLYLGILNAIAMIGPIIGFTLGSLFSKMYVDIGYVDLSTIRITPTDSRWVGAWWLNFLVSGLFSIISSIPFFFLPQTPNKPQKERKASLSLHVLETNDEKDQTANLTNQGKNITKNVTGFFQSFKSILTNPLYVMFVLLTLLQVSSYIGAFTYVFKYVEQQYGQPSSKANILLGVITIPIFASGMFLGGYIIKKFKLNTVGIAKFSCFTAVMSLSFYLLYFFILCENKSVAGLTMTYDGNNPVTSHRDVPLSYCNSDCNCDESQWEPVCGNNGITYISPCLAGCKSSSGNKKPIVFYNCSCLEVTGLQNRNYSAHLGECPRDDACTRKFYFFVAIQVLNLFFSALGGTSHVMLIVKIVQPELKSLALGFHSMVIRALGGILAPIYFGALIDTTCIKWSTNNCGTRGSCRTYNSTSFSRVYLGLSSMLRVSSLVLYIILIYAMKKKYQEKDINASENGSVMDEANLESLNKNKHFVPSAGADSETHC
compound,measurement,setting,value
Cc1cc(-c2ccc(C(=O)[C@@H]3CCCC[C@H]3C(=O)Nc3cnn4c3C(=O)NCC4)cc2)n[nH]1 [AZD5718],IC50,[1],0.039 µM
same,IC50,CYP2D6,> 20 µM
same,IC50,[2],20 µM
same,IC50,P‐glycoprotein,> 100 µM
same,IC50,[3],2.3 µM
